Reference: ChEMBL document CHEMBL5316338, “Discovery of Novel PTP1B Inhibitors with Once-Weekly Therapeutic Potential for Type 2 Diabetes: Design, Synthesis, and In Vitro and In Vivo Investigations of BimBH3 Peptide Analogues” (J Med Chem, 2023)
Activity calls are given as the source filed them. No cut-off for these calls is given here. Square brackets hold non-standard residues; d marks the D form. Peptide text beside a SMILES is read from it. * marks the point of attachment. ξ: configuration not given here. Stearoyl = CCCCCCCCCCCCCCCCCC(=O)*; ξR = N=C(N)NCCCC(N)C(=O)O

Legend:
[1] = test system: Mus musculus; assay: Antidiabetic activity against C57BL/Ks db/db mouse assessed as redcution in fasting blood glucose level at 1 umol/kg, sc administered once a week and measured on day 24 by glucometer analysis (reference value: 30.2 +/- 3.2 […]); assay type: functional; settings: dose 1 µmol/kg, time 24 day
[2] = Stability of compound assessed as Proteinase K (unknown origin) mediated compound degradation by measuring fold change of half-life by HPLC analysis relative to BimBH312-mer peptide; assay type: ADME
[3] = target: T1, Tyrosine-protein phosphatase non-receptor type 1 (Homo sapiens, UniProt P18031); assay: Inhibition of N-terminal His tagged recombinant human PTP1B expressed in Escherichia coli using pNPP as substrate assessed as substrate hydrolysis
T1 sequence (P18031 whole entry): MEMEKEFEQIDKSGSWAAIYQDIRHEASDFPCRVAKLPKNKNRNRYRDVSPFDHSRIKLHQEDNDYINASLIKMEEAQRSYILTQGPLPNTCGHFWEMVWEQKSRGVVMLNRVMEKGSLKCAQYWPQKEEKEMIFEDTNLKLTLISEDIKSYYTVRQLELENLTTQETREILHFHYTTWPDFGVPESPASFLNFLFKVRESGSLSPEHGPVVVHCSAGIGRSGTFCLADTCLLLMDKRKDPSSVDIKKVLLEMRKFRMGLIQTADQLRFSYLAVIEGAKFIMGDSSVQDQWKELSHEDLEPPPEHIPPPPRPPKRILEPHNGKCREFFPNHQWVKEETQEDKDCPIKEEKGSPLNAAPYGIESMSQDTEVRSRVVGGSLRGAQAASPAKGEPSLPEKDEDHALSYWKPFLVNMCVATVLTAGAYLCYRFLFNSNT

[4] = Stability of compound assessed as Pepsin (unknown origin) mediated compound degradation by measuring fold change of half-life by HPLC analysis relative to BimBH312-mer peptide; assay type: ADME; settings: human
[5] = test system: Mus musculus; assay: Antidiabetic activity against over-night fasted C57BL/ks db/db mouse assessed as suppression of increased blood glucose concentration at 1 uM/kg, sc pretreated with compound for 4 weeks followed by insulin stimulation and measured for 90 mins by insulin tolerance test; assay type: functional, organism-based; settings: time 40410.0 min
[6] = test system: Proteinase K; assay: Stability of compound assessed as Proteinase K (unknown origin) mediated compound degradation by measuring half-life by HPLC analysis; assay type: ADME
[7] = target: chymotrypsin (Homo sapiens, UniProt P17538+P40313+Q6GPI1+Q99895); assay: Stability of compound assessed as chymotrypsin (unknown origin) mediated compound degradation by measuring half-life by RP-HPLC analysis; assay type: ADME, protein assay
[8] = target: T2, Carboxypeptidase A1 (Homo sapiens, UniProt P15085); assay: Stability of compound assessed as carboxypeptidase A (unknown origin) mediated compound degradation by measuring fold change of half-life by RP-HPLC analysis relative to BimBH312-mer peptide; assay type: ADME
T2 sequence (P15085 whole entry): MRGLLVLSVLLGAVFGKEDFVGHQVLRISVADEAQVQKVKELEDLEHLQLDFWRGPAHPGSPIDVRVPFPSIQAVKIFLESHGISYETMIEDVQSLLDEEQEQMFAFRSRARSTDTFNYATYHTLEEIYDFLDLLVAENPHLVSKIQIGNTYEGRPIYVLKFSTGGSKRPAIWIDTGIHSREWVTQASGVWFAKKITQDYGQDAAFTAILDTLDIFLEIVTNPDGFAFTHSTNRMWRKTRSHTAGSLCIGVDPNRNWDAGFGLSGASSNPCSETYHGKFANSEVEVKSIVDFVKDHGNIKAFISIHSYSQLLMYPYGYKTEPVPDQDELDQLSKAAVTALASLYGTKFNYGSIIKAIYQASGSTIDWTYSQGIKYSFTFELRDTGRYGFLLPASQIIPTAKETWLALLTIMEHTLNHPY

[9] = test system: Mus musculus; assay: Antidiabetic activity against sc dosed C57BL/Ks db/db mouse assessed as reduction in glucagon level at 1 umol/kg by ELISA analysis; assay type: functional, organism-based; settings: dose 1.0 µmol/kg
[10] = test system: Mus musculus; assay: Antidiabetic activity against sc dosed C57BL/Ks db/db mouse assessed as reduction in C-peptide level at 1 umol/kg by ELISA analysis; assay type: functional, organism-based; settings: dose 1.0 µmol/kg
[11] = test system: Mus musculus; assay: Antidiabetic activity against C57BL/Ks db/db mouse assessed as redcution in fasting blood glucose level at 1 umol/kg, sc administered once a week and measured on day 26 by glucometer analysis (reference value: 31.4 +/- 2.2 […]); assay type: functional; settings: dose 1 µmol/kg, time 26 day
[12] = target: Chymotrypsin (Homo sapiens, UniProt Q99895+P17538+P40313+Q6GPI1); assay: Stability of compound assessed as chymotrypsin (unknown origin) mediated compound degradation by measuring fold change of half-life by RP-HPLC analysis relative to BimBH312-mer peptide; assay type: ADME, protein assay
[13] = test system: Mus musculus; assay: Antidiabetic activity against over-night fasted C57BL/ks db/db mouse assessed as suppression of increased blood glucose concentration at 1 uM/kg, sc pretreated with compound for 4 weeks followed by oral glucose stimulation and measured upto 120 mins by oral glucose tolerance test; assay type: functional, organism-based; settings: time 40440.0 min
[14] = target: T3, Tyrosine-protein phosphatase non-receptor type 2 (Homo sapiens, UniProt P17706); assay: Inhibition of recombinant human TC-PTP (1 to 314 residues) expressed in baculovirus infected insect cells using pNPP as substrate assessed as substrate hydrolysis; design: species or system Insect cell
T3 sequence (P17706 whole entry): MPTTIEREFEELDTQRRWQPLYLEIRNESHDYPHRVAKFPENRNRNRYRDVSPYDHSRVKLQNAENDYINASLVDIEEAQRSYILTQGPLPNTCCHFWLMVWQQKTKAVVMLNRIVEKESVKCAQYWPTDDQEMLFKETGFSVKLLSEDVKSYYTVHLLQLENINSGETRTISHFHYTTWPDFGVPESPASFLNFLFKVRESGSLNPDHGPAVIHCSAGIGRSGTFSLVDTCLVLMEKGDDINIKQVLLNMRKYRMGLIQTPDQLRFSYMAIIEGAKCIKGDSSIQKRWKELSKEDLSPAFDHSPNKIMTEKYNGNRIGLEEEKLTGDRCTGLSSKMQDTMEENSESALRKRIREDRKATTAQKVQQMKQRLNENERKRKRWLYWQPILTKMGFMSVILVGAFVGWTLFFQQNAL

[15] = test system: Mus musculus; assay: Antidiabetic activity against C57BL/Ks db/db mouse assessed as redcution in fasting blood glucose level at 1 umol/kg, sc administered once a week and measured on day 8 by glucometer analysis (reference value: 27.7 +/- 3.7 […]); assay type: functional; settings: dose 1 µmol/kg, time 8 day
[16] = test system: Mus musculus; assay: Antidiabetic activity against C57BL/Ks db/db mouse assessed as redcution in fasting blood glucose level at 1 umol/kg, sc administered once a week and measured on day 22 by glucometer analysis (reference value: 27.4 +/- 1.8 […]); assay type: functional; settings: dose 1 µmol/kg, time 22 day
[17] = test system: Mus musculus; assay: Antidiabetic activity against C57BL/Ks db/db mouse assessed as redcution in fasting blood glucose level at 1 umol/kg, sc administered once a week and measured on day 15 by glucometer analysis (reference value: 27.3 +/- 2.4 […]); assay type: functional; settings: dose 1 µmol/kg, time 15 day
[18] = organism: Homo sapiens; assay: Selectivity index, ratio of IC50 for inhibition of recombinant human TC-PTP (1 to 314 residues) expressed in baculovirus infected insect cells to IC50 for inhibition of N-terminal His-tagged recombinant human PTP1B expressed in Escherichia coli
[19] = target: T4, carboxypeptidase A (Homo sapiens, UniProt P15085); assay: Stability of compound assessed as carboxypeptidase A (unknown origin) mediated compound degradation by measuring half-life by RP-HPLC analysis; assay type: ADME
T4 sequence (P15085 whole entry): T2 sequence (P15085 whole entry)

[20] = test system: Mus musculus; assay: Antidiabetic activity against C57BL/Ks db/db mouse assessed as redcution in fasting blood glucose level at 1 umol/kg, sc administered once a week and measured on day 28 by glucometer analysis (reference value: 32.4 +/- 1.1 […]); assay type: functional; settings: dose 1 µmol/kg, time 28 day
[21] = test system: Pepsin; assay: Stability of compound assessed as Pepsin (unknown origin) mediated compound degradation by measuring half-life by HPLC analysis; assay type: ADME; settings: human
[22] = target: T5, Tyrosine-protein phosphatase non-receptor type 1 (Homo sapiens) (UniProt P18031); assay: Inhibition of N-terminal His tagged recombinant human PTP1B expressed in Escherichia coli using pNPP as substrate assessed as substrate hydrolysis at 40 umol/L relative to control; settings: dose 40.0 µmol/L
T5 sequence (whole entry): T1 sequence (P18031 whole entry)

[23] = test system: Mus musculus; assay: Antidiabetic activity against sc dosed C57BL/Ks db/db mouse assessed as reduction in serum insulin level at 1 umol/kg by ELISA analysis; assay type: functional, organism-based; settings: dose 1.0 µmol/kg
[24] = test system: Mus musculus; assay: Antidiabetic activity against C57BL/Ks db/db mouse assessed as redcution in fasting blood glucose level at 1 umol/kg administered subcutaneously and measured immediately by glucometer analysis (reference value: 19.0 +/- 2.7 […]); assay type: functional; settings: dose 1 µmol/kg; route sc

CCCCCCCCCCCCCCCCCC(=O)N[C@H](C(=O)N[C@@H](C)C(=O)N[C@@H](CCC(N)=O)C(=O)N[C@@H](CCC(=O)O)C(=O)N[C@@H](CC(C)C)C(=O)N[C@@H](CCCNC(=N)N)C(=O)NC(CCCNC(=N)N)C(=O)N[C@H](C(=O)NCC(=O)N[C@@H](CC(=O)O)C(=O)N[C@@H](CCC(=O)O)C(=O)N[C@@H](Cc1ccccc1)C(=O)O)[C@@H](C)CC)[C@@H](C)CC (some centres undefined) (Stearoyl-IAQELR[ξR]IGDEF-OH)
Fasting blood glucose level [1]: 18.1 mmol/L | fold change (FC) [2]: 28.6 | IC50 [3]: 0.12 µM | fold change (FC) [4]: 334.5 | Activity [5]: Active | half-life [6]: 1.43 h | half-life [7]: 7.33 h | fold change (FC) [8]: 549.1 | Activity [9]: Active | Activity [10]: Active | Fasting blood glucose level [11]: 16.3 mmol/L | fold change (FC) [12]: 170.5 | Activity [13]: Active | IC50 [14]: 13.6 µM | Fasting blood glucose level [15]: 11.8 mmol/L | Fasting blood glucose level [16]: 15.6 mmol/L | Fasting blood glucose [17]: 12.8 mmol/L | Ratio IC50 [18]: 113 | half-life [19]: 17.6 h | Fasting blood glucose level [20]: 19.8 mmol/L | half-life [21]: 7.36 h | inhibition [22]: > 50% | Activity [23]: Active | Fasting blood glucose level [24]: 20.4 mmol/L
